# Measured values reported in patent publication US12613249B2 (THE ROYAL INSTITUTION FOR THE ADVANCEMENT OF LEARNING / …, priority 2019, dated 2026).
# Square brackets hold non-standard residues; d marks the D form. Peptide text beside a SMILES is read from it.
# Assay: Ex-vivo stability in mouse whole blood, MALDI-TOF MS
# Assay type: in vitro ADME
# Method: The stability of D-AIP in mouse plasma, blood and liver S-9 fraction was investigated to ascertain the metabolic resistance towards proteases and enzymatic activities in these matrices. Whole mouse blood obtained from healthy C57BL/6 male and female mice (6 mice in total) were collected in lithium heparin containing tubes, pooled and stored at 4° C. prior to its use. A fraction of the pooled blood was immediately centrifuged at 1500×g for 10 min at 4° C. to obtain the plasma. The whole blood and plasma samples were spiked with PBS (as control) or AIP (L-AIP, D-AIP or sD-AIP respectively) to make a final concentration of 1 ug/mL and incubated at 37° C. Initial samples were withdrawn to represent t=0 prior to incubation and others were withdrawn 1, 3 and 24 h respectively. Fresh mouse liver also obtained from C57BL/6 male and female mice were pooled, homogenized in 0.15 M Potassium chloride (KCl) and centrifuged at 9000×g. The supernatant represents liver homogenate (S-9) fraction which was mixed with other buffers to formulate the liver S-9 mix as previously described (Kolrep et al., 2017, Toxicol In Vitro, 42:161-170). Liver S-9 mix were spiked with AIP to make a final concentration of 1 μg/mL (L-AIP, D-AIP or sD-AIP respectively) and incubated at 37° C. Just after the addition of NADPH, 100 μL aliquot which represents t=0 samples were withdrawn and others were sampled accordingly at predetermined time points. 400 μL of ice cold MeOH was added to the spiked plasma, blood or liver S-9 fraction respectively, to precipitate the microsomal protein. The samples were then vigorously mixed for 30 s to facilitate extraction and centrifuged for 10 minutes at 13000 rpm, the supernatant was subjected to sample clean up by C18 ZipTip (EMD Millipore Corporation), the eluates were spotted with CHCA matrix on the ground steel MALDI-TOF target and analyzed with MALDI-TOF MS. Applying the t=0 peak area as 100% the intensities of the other time points were compared relatively for interpretation. […]
compound,measurement,setting,value
C[C@H](O)[C@@H](NC(=O)CNC(=O)[C@H](N)CCCNC(=N)N)C(=O)N[C@H](Cc1ccccc1)C(=O)N[C@H](CCC(=O)O)C(=O)NCC(=O)N[C@H](CCCCN)C(=O)N[C@H](Cc1ccccc1)C(=O)O [D-AIP] (H-[dR]G[dT][dF][dE]G[dK][dF]-OH; N-terminus and C-terminus assumed),"stability, MALDI-TOF MS signal (941 m/z)","37° C., 24 h",relatively stable up to 24 h
same,"metabolised at 24 h, 1 ug/mL","both sexes, C57BL/6, 24 h incubation, read-out: decrease of signal",~50%
